Data: ChEMBL document CHEMBL5370597, “Fungal Duel between Penicillium brasilianum and Aspergillus nomius Results in Dual Induction of Miktospiromide A and Kitrinomycin A” (J Nat Prod, 2023)
Converted amounts (≈) assume the structure as drawn. The source made the active and inactive calls. The calls are words filed in the database; no cut-off is given here.

What was measured:
MCF7 = test: Cytotoxicity against human MCF7 cells incubated for 72 hrs by resazurin staining based microplate reader assay; assay type: functional
Tritrichomonas foetus = test: Antiprotozoal activity against Tritrichomonas foetus KV-1 strain assessed as inhibition of protozoal growth measured after 72 hrs under anaerobic conditions; assay type: functional
DU-145 = test: Cytotoxicity against human DU-145 cells incubated for 72 hrs by resazurin staining based microplate reader assay; assay type: functional
NFF = test: Cytotoxicity against human NFF cells incubated for 72 hrs by resazurin staining based microplate reader assay; assay type: toxicity, cell-based
Staphylococcus aureus = test: Antibacterial activity against Staphylococcus aureus ATCC 25923 assessed as bacterial growth inhibition incubated for 48 hrs by resazurin staining based microplate reader assay; assay type: functional
Bacillus subtilis = test: Antibacterial activity against Bacillus subtilis ATCC 6633 assessed as bacterial growth inhibition incubated for 48 hrs by resazurin staining based microplate reader assay; assay type: functional
Escherichia coli = test: Antibacterial activity against Escherichia coli ATCC 25922 assessed as bacterial growth inhibition incubated for 48 hrs by resazurin staining based microplate reader assay; assay type: functional
[1] = Cytotoxicity against mouse NS-1 cells incubated for 72 hrs by resazurin staining based microplate reader assay; assay type: functional
Candida albicans = test: Antifungal activity against Candida albicans ATCC 10231 assessed as fungal growth inhibition incubated for 48 hrs by bromocresol green staining based microplate reader assay; assay type: functional
Aspergillus nomiae [2] = test: Antifungal activity against Aspergillus nomius MST-FP2004 assessed as change in morphology at 20 ug by disc diffusion assay; assay type: functional, organism-based; conditions: dose 20.0 µg
Aspergillus nomiae [3] = test: Antifungal activity against Aspergillus nomius MST-FP2004 assessed as reduction in growth diameter at 20 ug by disc diffusion assay relative to control; assay type: functional; set-up: scale not given: the % may be the effect or the level left; conditions: dose 20 µg
Giardia intestinalis = test: Anti-protozoal activity against Giardia duodenalis 713 assessed as inhibition of protozoal growth measured after 72 hrs under anaerobic conditions; assay type: functional
Saccharomyces cerevisiae = test: Antifungal activity against Saccharomyces cerevisiae ATCC 9763 assessed as fungal growth inhibition incubated for 48 hrs by bromocresol green staining based microplate reader assay; assay type: functional
Aspergillus nomiae [4] = test: Antifungal activity against Aspergillus nomius MST-FP2004 assessed as fungal growth rate at 20 ug by disc diffusion assay; assay type: functional, organism-based; conditions: dose 20.0 µg
Penicillium brasilianum [5] = test: Antifungal activity against Penicillium brasilianum MST-FP1927 assessed as change in morphology at 20 ug by disc diffusion assay; assay type: functional, organism-based; conditions: dose 20.0 µg
Penicillium brasilianum [6] = test: Antifungal activity against Penicillium brasilianum MST-FP1927 assessed as fungal growth rate at 20 ug by disc diffusion assay; assay type: functional, organism-based; conditions: dose 20.0 µg

Row | Molecule | LD99 (MCF7) | LD99 (Tritrichomonas foetus) | LD99 (DU-145) | LD99 (NFF) | MIC (Staphylococcus aureus) | MIC (Bacillus subtilis) | MIC (Escherichia coli) | LD99 [1] | MIC (Candida albicans) | Activity (Aspergillus nomiae [2]) | Activity (Aspergillus nomiae [3]) | LD99 (Giardia intestinalis) | MIC (Saccharomyces cerevisiae) | Activity (Aspergillus nomiae [4]) | Activity (Penicillium brasilianum [5]) | Activity (Penicillium brasilianum [6])
1 | CN[C@@H]1C[C@H]2O[C@@](C)([C@@H]1OC)n1c3ccccc3c3c4c(c5c6ccccc6n2c5c31)C(=O)NC4 [STAUROSPORINE] | 54 µM | 1.2 µM | 3.4 µM | 0.09 µM | – | – | – | – | – | – | – | – | – | – | – | –
2 | GENTAMICIN | – | – | – | – | 0.38 µg/mL | 0.38 µg/mL | 0.81 µg/mL | – | – | – | – | – | – | – | – | –
3 | CO[C@@]12[C@H](COC(N)=O)C3=C(C(=O)C(C)=C(N)C3=O)N1C[C@@H]1N[C@@H]12 [MITOMYCIN] | – | – | – | – | – | – | – | 0.93 µM | – | – | – | – | – | – | – | –
4 | COC(=O)c1oc(=O)c2c(O)c3c(O)c(C(C)=O)oc3cc2c1O | >100 µM | 4.8 µM | >100 µM | > 100 µM | > 100 µg/mL | 42 µg/mL (≈ 126 µM) | > 100 µg/mL | 7.8 µM | > 100 µg/mL | inactive | ~7% | 37 µM | > 100 µg/mL | inactive | – | –
5 | CCCCCCC/C=C/C1=CC(=O)[C@]2(O1)C(=O)N[C@@](C)(O)[C@H]2O | >100 µM | >100 µM | 39 µM | > 100 µM | 50 µg/mL (≈ 155 µM) | 25 µg/mL (≈ 77.3 µM) | > 100 µg/mL | 77 µM | > 100 µg/mL | – | – | 39 µM | > 100 µg/mL | – | inactive | inactive
6 | Cc1ncc([N+](=O)[O-])n1CCO [METRONIDAZOLE] | – | – | – | – | – | – | – | – | – | – | – | 9.1 µM | – | – | – | –
7 | COC(=O)c1oc(=O)c2c(O)c(C(=O)O)c(O)cc2c1O | >100 µM | >100 µM | >100 µM | > 100 µM | > 100 µg/mL | > 100 µg/mL | > 100 µg/mL | >100 µM | > 100 µg/mL | inactive | – | >100 µM | > 100 µg/mL | inactive | – | –
8 | C[C@@H]1[C@H](O)[C@@H](C)/C=C/C=C/C=C/C=C/C=C/C=C/C=C/[C@H](O[C@@H]2O[C@H](C)[C@@H](O)[C@H](N)[C@@H]2O)C[C@@H]2O[C@](O)(C[C@@H](O)C[C@@H](O)[C@H](O)CC[C@@H](O)C[C@@H](O)CC(=O)O[C@H]1C)C[C@H](O)[C@H]2C(=O)O [AMPHOTERICIN B] | – | – | – | – | – | – | – | – | 0.09 µg/mL (≈ 0.0974 µM) | – | – | – | 0.28 µg/mL (≈ 0.303 µM) | – | – | –
